{NH2C12} = amino-(CH2)12 linker attached through a phosphate; {FITC} = fluorescein (FITC) label
test system: HepG2 cells; experiment: Transmembrane transfer of FITC-tagged single-stranded or double-stranded DNA/RNA with X-tremeGENEsiRNA reagent, laser confocal microscopy; assay type: cell-based; conditions: 4 nmol, 6 h, laser confocal microscope, FIG. 5
Procedure: 24 h before transfer, the HepG2 cells in the phase of logarithmic growth were digested with trypsin; a culture medium containing 10% serum was used for adjusting the cell density to 0.5×10^6 cells/mL; and the cells were inoculated again in a cell culture dish of 15 cm and cultured in a culture incubator containing 5% CO2 at 37° C. The cells may be used for experiments when the cell density reaches 60% to 70% 24 h later.
4 nmol of synthesized single-stranded or double-stranded DNA/RNA fragments in different sequences was added to a sterile centrifuge tube (tube A) of 15 mL, respectively, and uniformly mixed with Opti-MEM in a corresponding volume, with a total volume of 2 mL; the X-tremeGENEsiRNA reagent was shaken gently, and 160 μL of X-tremeGENEsiRNA reagent was mixed with 1.84 mL of Opti-MEM in another tube (tube B); and the solution in the tube A was mixed with the solution in the tube B, the mixture was slightly triturated by a pipette and incubated for 20 min at room temperature.
6 mL of RPMI-1640 serum-free culture medium was added to the mixture and mixed uniformly; the primary culture medium in the HepG2 cell culture dish was discarded, and slightly triturated with RPMI-1640 serum-free culture medium once; and then, the mixture was moved into the HepG2-PT cell culture dish, and cultured in a culture incubator containing 5% CO2 at 37° C. 6 h later, the positioning of the DNA/RNA in the cells was observed by a laser confocal microscope.

Row | Substance | positioning of the DNA/RNA in the cells (transfer into cells)
1 | 5′-NH2—(CH2)12—PO4-A3-3′-FITC [polyA of 38 bp] | transferred into cells by X-tremesiRNA, with most of them into the cytoplasm and a few of them into the cell nucleus
2 | 5′-NH2—(CH2)12—PO4-A5-3′-FITC [polyA of 5 bp] | transferred into cells by X-tremesiRNA, with most of them into the cytoplasm and a few of them into the cell nucleus
3 | 5′-NH2—(CH2)12—PO4-A19-3′-FITC [polyA of 19 bp] | transferred into cells by X-tremesiRNA, with most of them into the cytoplasm and a few of them into the cell nucleus
4 | 5′-NH2—(CH2)12—PO4-TGGGCTGGCCAAACTGCTG-3′-FITC (DNA, 5' {NH2C12}, 3' {FITC}, backbone and methylation of C not given here) | transferred into cells by X-tremesiRNA, with most of them into the cytoplasm and a few of them into the cell nucleus
5 | double-stranded random sequence fragments of 19 bp: duplex of 5′-NH2-(CH2)12-PO4-TGGGCTGGCCAAACTGCTG-3′-FITC with 3′-ACCCGACCGGTTTGACGAC-5′ | transferred into cells by X-tremesiRNA, with most of them into the cytoplasm and a few of them into the cell nucleus

From patent US20160153002A1, “METHOD FOR CELL MEMBRANE PERMEATION FOR COMPOUND” (HitGen LTD., priority 2013, published 2016)
